Test results from patent US7973051B2 (Hoffman-La Roche Inc., priority 2007, dated 2011).

Each compound was assayed against T1, human liver FBPase (Homo sapiens, UniProt P09467) (assay: FBPase assay: inorganic phosphate release (malachite green)). Details: recombinant human liver FBPase, 50 μM fructose-1,6-bisphosphate, read-out at 620 nm.
T1 construct: made in house; host or cells: E. coli
T1 sequence (P09467 2-338 limits assumed): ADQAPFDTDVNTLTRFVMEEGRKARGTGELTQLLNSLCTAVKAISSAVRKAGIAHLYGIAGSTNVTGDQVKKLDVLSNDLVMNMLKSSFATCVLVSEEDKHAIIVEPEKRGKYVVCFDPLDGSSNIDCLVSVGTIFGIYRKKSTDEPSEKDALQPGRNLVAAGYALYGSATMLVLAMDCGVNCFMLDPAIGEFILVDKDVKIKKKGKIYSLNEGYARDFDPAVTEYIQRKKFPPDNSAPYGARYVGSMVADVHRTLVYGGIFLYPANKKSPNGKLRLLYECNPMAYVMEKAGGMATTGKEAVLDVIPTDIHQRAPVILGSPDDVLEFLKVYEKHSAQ
Assay type: biochemical
In short: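 Recombinant human liver FBPase (E. coli-expressed, >90% pure), 25 ng per reaction, with 50 μM fructose-1,6-bisphosphate in 50 mM HEPES-KOH pH 7.2, 2 mM MgCl2, 2 mM EDTA, 1 mM DTT, 1% DMSO. After 50 min at room temperature, released phosphate was complexed with malachite green/ammonium molybdate and read at 620 nm.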
An IC50 of 0.315 µM was found for COCc1oc(S(=O)(=O)NC(=O)Nc2ncc(Br)s2)cc1C [Example 36, N-[(5-Bromo-1,3-thiazol-2-yl)carbamoyl]-5-(methoxymethyl)-4-methylfuran-2-sulfonamide] in this work. An IC50 of 0.134 µM was found for CCc1nc(NC(=O)NS(=O)(=O)c2cc(C)c(CCOC(C)=O)s2)sc1SC [Example 83, 2-{5-[({[4-Ethyl-5-(methylthio)-1,3-thiazol-2-yl]carbamoyl}amino)sulfonyl]-3-methyl-2-thienyl}ethyl acetate] in this work. An IC50 of 0.653 µM was found for COC(=O)c1cccc2c(S(=O)(=O)NC(=O)Nc3ncc(Br)s3)cn(C)c12 [Example 32, Methyl 3-({[(5-bromo-1,3-thiazol-2-yl)carbamoyl]amino}sulfonyl)-1-methyl-1H-indole-7-carboxylate] in this work. An IC50 of 0.111 µM was found for O=C(Nc1ncc(Br)s1)NS(=O)(=O)c1cc2cc(Cl)ccc2s1 [Example 13, N-[(5-Bromo-1,3-thiazol-2-yl)carbamoyl]-5-chloro-1-benzothiophene-2-sulfonamide] in this work. An IC50 of 2.73 µM was found for Cc1c(S(=O)(=O)NC(=O)Nc2ncc(Br)s2)sc2ccc(F)cc12 [Example 3, N-[(5-Bromo-1,3-thiazol-2-yl)carbamoyl]-5-fluoro-3-methyl-1-benzothiophene-2-sulfonamide] in this work. An IC50 of 0.256 µM was found for CCc1sc(NC(=O)NS(=O)(=O)c2cc(C)c(CCOC(C)=O)s2)nc1C(C)C [Example 75, 2-[5-({[(5-Ethyl-4-isopropyl-1,3-thiazol-2-yl)carbamoyl]amino}sulfonyl)-3-methyl-2-thienyl]ethyl acetate] in this work. An IC50 of 0.616 µM was found for COc1ccc2nc(NC(=O)NS(=O)(=O)c3cc(C)c(CCOC(C)=O)s3)sc2n1 [Example 55, 2-[5-({[(5-methoxy[1,3]thiazolo[5,4-b]pyridin-2-yl)carbamoyl]amino}sulfonyl)-3-methyl-2-thienyl]ethyl acetate] in this work. An IC50 of 0.28 µM was found for Cc1cc(S(=O)(=O)NC(=O)Nc2nc(-c3ccccc3)c(C)s2)sc1CCO [Example 76, 5-(2-Hydroxyethyl)-4-methyl-N-[(5-methyl-4-phenyl-1,3-thiazol-2-yl)carbamoyl]thiophene-2-sulfonamide] in this work. An IC50 of 3.5 µM was found for COc1cnc(NC(=O)NS(=O)(=O)c2cn(C)c3c(OCCOC(C)=O)cccc23)s1 [Example 46, 2-{[3-({[(5-Methoxy-1,3-thiazol-2-yl)carbamoyl]amino}sulfonyl)-1-methyl-1H-indol-7-yl]oxy}ethyl acetate] in this work. An IC50 of 0.215 µM was found for CCc1nc(NC(=O)NS(=O)(=O)c2cc(C)c(CCOC(C)=O)s2)sc1CC [Example 67, 2-[5-({[(4,5-Diethyl-1,3-thiazol-2-yl)carbamoyl]amino}sulfonyl)-3-methyl-2-thienyl]ethyl acetate] in this work. An IC50 of 0.429 µM was found for CC(=O)OCCOc1cccc2c(S(=O)(=O)NC(=O)Nc3ncc(Br)s3)cn(C)c12 [Example 48, 2-{[3-({[(5-Bromo-1,3-thiazol-2-yl)carbamoyl]amino}sulfonyl)-1-methyl-1H-indol-7-yl]oxy}ethyl acetate] in this work. An IC50 of 0.341 µM was found for CCc1sc(NC(=O)NS(=O)(=O)c2cc(C)c(CCOC)s2)nc1C [Example 60, N-[(5-Ethyl-4-methyl-1,3-thiazol-2-yl)carbamoyl]-5-(2-methoxyethyl)-4-methylthiophene-2-sulfonamide] in this work.
